The structures appear in SMILES notation. Converted amounts (≈) assume the structure as drawn.

This note sets out measurements from ChEMBL document CHEMBL1149625, “Rational design of 6-(2,4-diaminopyrimidinyl)-1,4-benzoxazin-3-ones as small molecule renin inhibitors” (Bioorg Med Chem, 2007).

The nature of one data set: physchem. Particulars: aqueous, pH 6.5, Solubility.
Data set [1] in a line: in vivo. Particulars: rat, iv, 1 mg/kg.
The nature of data set [2]: Volume of distribution at steady state in rat at 1 mg/kg, iv or 5 mg/kg, po. It is filed as ADME, organism-based. The conditions noted are these: in vivo, read-out: Vdss.
A short description of data set [3]: in vivo. The conditions noted are these: rat, po, 10 mg/kg.
The nature of data set [4]: in vivo. Particulars: rat, po, 10 mg/kg. The source holds these as a separate data set.
Data set [5] can be described thus: Bioavailability in dog at 5 mg/kg, po. The format is ADME, organism-based, Canis lupus familiaris. Particulars: in vivo.
Data set [6] in a line: Bioavailability in rat at […], po. The format is ADME, organism-based. The conditions noted are these: in vivo.
Data set [7] in a line: Volume of distribution at steady state in rat at […], iv or […], po. It is filed as ADME, organism-based. Particulars: in vivo, read-out: Vdss.
The nature of data set [8]: Cmax in rat at […], iv or […], po. The format is ADME, organism-based. The conditions noted are these: in vivo.
The nature of data set [9]: Bioavailability in rat at 5 mg/kg, po. The format is ADME, organism-based. Particulars: in vivo.
Data set [10] can be described thus: Cmax in rat at 1 mg/kg, iv or 5 mg/kg, po. It is filed as ADME, organism-based. Particulars: in vivo.
For data set [11] the following is noted: buffer, pH 6.5.

One may read the solubility as how much of the substance goes into solution per volume. As to `CCc1nc(N)nc(N)c1-c1ccc2c(c1)N(CCO)C(=O)C(C)(c1cc(F)cc(F)c1)O2` (stereo not given), the solubility in “physchem” turned out to be 0.089 mg/mL (≈ 195 µM). In “in vivo [1]”, this compound returned a Vd of 3.3 L/kg.
`CCc1nc(N)nc(N)c1-c1ccc2c(c1)N(CCNC(C)=O)C(=O)[C@@](C)(c1ccccc1)O2` displayed a solubility in “physchem” of 0.04 mg/mL (≈ 86.9 µM).
For `CCc1nc(N)nc(N)c1-c1ccc2c(c1)N(CCCOC)C(=O)C(CC)(CC)O2`, in “physchem”, the concentration in solution (solubility) was 0.016 mg/mL (≈ 38.7 µM). This solubility lies about 2.5-fold lower than the previous one.
As to `CCc1nc(N)nc(N)c1-c1ccc2c(c1)N(CCNC(=O)CO)C(=O)C(C)(c1cc(F)cc(F)c1)O2` (stereo not given), the Vd in [2] came to 2.9 L/kg. In the data set “physchem”, the solubility came to 0.059 mg/mL (≈ 115 µM).
For the compound `CCc1nc(N)nc(N)c1-c1ccc2c(c1)N(CCCOC)C(=O)C(C)(CC)O2` (stereo not given), the concentration in solution in the data set “physchem” (solubility) came to 0.054 mg/mL (≈ 135 µM).
`CCc1nc(N)nc(N)c1-c1ccc2c(c1)N(CCC(=O)NC)C(=O)C(C)(c1cc(F)cc(F)c1)O2` (stereo not given): the Vd in data set [2] came out at 2.1 L/kg. The same compound had a solubility in “physchem” of 0.133 mg/mL (≈ 268 µM).
For `CCc1nc(N)nc(N)c1-c1ccc2c(c1)N(CCNS(C)(=O)=O)C(=O)C(C)(c1cc(F)cc(F)c1)O2` (stereo not given), in the data set “physchem”, the concentration in solution (solubility) was 0.2 mg/mL (≈ 376 µM).
What is called bioavailability is the share of a dose that reaches the circulation, judged against a reference dose that is usually intravenous. As a reminder, the Cmax is the maximum level reached in the sampled fluid or tissue. In “in vivo [3]”, `CCc1nc(N)nc(N)c1-c1ccc2c(c1)N(CCNC(=O)OC)C(=O)C(C)(c1cc(F)cc(F)c1)O2` (stereo not given) showed a bioavailability of 34%. The compound also came in with a Cmax in the data set “in vivo [4]” of 0.28 µg/mL. This compound registered a Vd in the data set “in vivo [1]” of 3.5 L/kg.
Regarding `CCc1nc(N)nc(N)c1-c1ccc2c(c1)N(CCCOC(F)(F)F)C(=O)C(C)(c1cc(F)cc(F)c1)O2` (stereo not given), the bioavailability in the data set “in vivo [3]” was 28%. Also, the concentration in solution in “physchem” (solubility) came to 0.0078 mg/mL (≈ 14.5 µM). For the same compound, the highest level in the data set “in vivo [4]” (Cmax) was 0.2 µg/mL. Also, the Vd in the data set “in vivo [1]” was determined as 6.3 L/kg.
Turning to `CCc1nc(N)nc(N)c1-c1ccc2c(c1)N(CCCC(F)(F)F)C(=O)[C@](C)(c1cc(F)cc(F)c1)O2`, the bioavailability in the data set “in vivo [3]” is 74%; in data set [5] it was 19%. The Cmax in the data set “in vivo [4]” was determined as 0.38 µg/mL. Moreover, the Vd in “in vivo [1]” was found to be 5.7 L/kg.
`CCc1nc(N)nc(N)c1-c1ccc2c(c1)N(CCNC(C)=O)C(=O)[C@](C)(c1ccccc1)O2`: the solubility in “physchem” worked out at 0.119 mg/mL (≈ 258 µM).
The compound `CCOCCCN1C(=O)C(C)(c2cc(F)cc(F)c2)Oc2ccc(-c3c(N)nc(N)nc3CC)cc21` (stereo not given) gave a bioavailability in [6] of 0%. For the same compound, the concentration in solution in “physchem” (solubility) came to 0.059 mg/mL (≈ 119 µM). Also, the Vd in data set [7] came out at 2 L/kg. Moreover, in data set [8], the maximum concentration (Cmax) is under 0.005 µg/mL.
For `CCc1nc(N)nc(N)c1-c1ccc2c(c1)N(CCCO)C(=O)C(C)(c1cc(F)cc(F)c1)O2` (stereo not given), in [2], the Vd amounted to 3.1 L/kg. Moreover, the solubility in “physchem” came to 0.028 mg/mL (≈ 59.6 µM). In [9], this compound showed a bioavailability of 44%. The peak level in [10] (Cmax) was 0.18 µg/mL.
In “physchem”, `CCc1nc(N)nc(N)c1-c1ccc2c(c1)N(CCNC(C)=O)C(=O)C(C)(C(F)(F)F)O2` (stereo not given) returned a solubility of 0.2 mg/mL (≈ 442 µM).
Turning to `CCc1nc(N)nc(N)c1-c1ccc2c(c1)N(CCNC(C)=O)C(=O)C1(CC1)O2`, in the data set “physchem”, the concentration in solution (solubility) came to 0.024 mg/mL (≈ 60.5 µM).
The compound `CCNC(=O)CN1C(=O)C(C)(c2cc(F)cc(F)c2)Oc2ccc(-c3c(N)nc(N)nc3CC)cc21` (stereo not given) gave a bioavailability in data set [6] of 14%. Besides, in the data set “physchem”, the solubility came out at 0.089 mg/mL (≈ 179 µM). Further, the Vd in [7] turned out to be 3.1 L/kg. For the same compound, the peak level in data set [8] (Cmax) was 0.06 µg/mL.
In the data set “physchem”, `CCc1nc(N)nc(N)c1-c1ccc2c(c1)N(CCCOC)C(=O)C(C)(C)O2` displayed a solubility of 0.034 mg/mL (≈ 88.2 µM).
Take `CCc1nc(N)nc(N)c1-c1ccc2c(c1)N(CCCCO)C(=O)C(C)(c1cc(F)cc(F)c1)O2` (stereo not given): the bioavailability in “in vivo [3]” worked out at 7%. For the same compound, the concentration in solution in “physchem” (solubility) was 0.059 mg/mL (≈ 122 µM). The same compound displayed a Cmax in the data set “in vivo [4]” of 0.186 µg/mL. This compound also came in with a Vd in “in vivo [1]” of 2.3 L/kg.
`CCc1nc(N)nc(N)c1-c1ccc2c(c1)N(CCCC#N)C(=O)C(C)(c1cc(F)cc(F)c1)O2` (stereo not given) returned a bioavailability in “in vivo [3]” of 12%. The same compound yielded a solubility in “physchem” of 0.0035 mg/mL (≈ 7.31 µM). This compound also gave a Cmax in “in vivo [4]” of 0.237 µg/mL. In addition, in the data set “in vivo [1]”, the Vd amounted to 1.9 L/kg.
Turning to `CCc1nc(N)nc(N)c1-c1ccc2c(c1)N(CCCOC)C(=O)C(C)(c1ccc(F)c(F)c1)O2` (racemic), the concentration in solution in the data set “physchem” (solubility) was 0.013 mg/mL (≈ 26.9 µM).
In “physchem”, `CCc1nc(N)nc(N)c1-c1ccc2c(c1)N(CCNC(C)=O)C(=O)C(C)(c1ccc(Cl)cc1)O2` (racemic) gave a solubility of 0.012 mg/mL (≈ 24.2 µM).
Regarding `CCc1nc(N)nc(N)c1-c1ccc2c(c1)N(CCNC(C)=O)C(=O)C(C)(c1cc(F)ccc1F)O2` (racemic), the solubility in the data set “physchem” was 0.0023 mg/mL (≈ 4.63 µM).
As to `CCc1nc(N)nc(N)c1-c1ccc2c(c1)N(CCCOC)C(=O)C(C)(c1cc(F)cc(F)c1)O2` (racemic), in data set [2], the Vd is 4.5 L/kg. Also, the bioavailability in [9] was 0.4%. Besides, the solubility in data set [11] amounted to 0.087 mg/mL (≈ 180 µM). In data set [10], this compound showed a Cmax of 0.023 µg/mL.
In “physchem”, `CCc1nc(N)nc(N)c1-c1ccc2c(c1)N(CCCOC)C(=O)C(CC)(c1cc(F)cc(F)c1)O2` (racemic) registered a solubility of 0.0026 mg/mL (≈ 5.23 µM).
Compound `CCc1nc(N)nc(N)c1-c1ccc2c(c1)N(CCCC(F)(F)F)C(=O)C(C)(c1cc(F)cc(F)c1)O2` (racemic) returned a bioavailability in “in vivo [3]” of 12%. In “physchem”, the solubility amounted to 0.0052 mg/mL (≈ 9.97 µM). Besides, the peak level in “in vivo [4]” (Cmax) was 0.16 µg/mL. The Vd in “in vivo [1]” came out at 5.1 L/kg.
As for `CCc1nc(N)nc(N)c1-c1ccc2c(c1)N(CCNC(C)=O)C(=O)C(C)(c1cccc(C(F)(F)F)c1)O2` (racemic), in the data set “physchem”, the solubility was determined as 0.012 mg/mL (≈ 22.7 µM).
Compound `CCc1nc(N)nc(N)c1-c1ccc2c(c1)N(CCNC(C)=O)C(=O)C(C)(c1cccc(Cl)c1)O2` (racemic) had a solubility in the data set “physchem” of 0.133 mg/mL (≈ 269 µM).
On to `CCc1nc(N)nc(N)c1-c1ccc2c(c1)N(CCNC(C)=O)C(=O)C(C)(c1cc(F)cc(F)c1)O2` (racemic), for which the solubility in [11] came to 0.133 mg/mL (≈ 268 µM).
With `CCc1nc(N)nc(N)c1-c1ccc2c(c1)N(CCCOC)C(=O)C(C)(c1cc(F)cc(F)c1)O2` (stereo in doubt; 25), the solubility in the data set “physchem” came to 0.087 mg/mL (≈ 180 µM).
In the case of `CCc1nc(N)nc(N)c1-c1ccc2c(c1)N(CCNC(C)=O)C(=O)C(C)(c1cc(F)cc(F)c1)O2` (stereo in doubt; 26), the Vd in data set [2] is 2.1 L/kg. The amount in solution in “physchem” (solubility) came to 0.095 mg/mL (≈ 191 µM). Also, the bioavailability in data set [9] is 8%. The compound further registered a Cmax in data set [10] of 0.22 µg/mL.
